Experimental data as given in patent US8609358B2, “Methods, peptides and biosensors useful for detecting a broad spectrum of bacteria” (priority 2003, dated 2013).
Primed or numbered codes have the meaning given here. Dabcyl′ = FRET label; Edans = FRET label

How the values were obtained:
[1] = test system: bacterial culture (media and cells); test: Broad spectrum FRET assay, overnight bacterial culture; assay type: biochemical; settings: pH 7.2, 150 mM NaCl, 37° C.
Description: (§1) A culture of each of the following bacterial species was grown overnight (O/N) in Brain Heart Infusion (BHI) broth at 37° C. with vigorous shaking (˜200 rpm), using methods that are standard in the art: Staphylococcus aureus; Streptococcus pyogenes; Serratia marcescens; Escherichia coli; Pseudomonas aeruginosa (PA14); Pseudomonas aeruginosa (GSU3); and Enterococcus faecalis. After overnight growth, a 1 ml sample of each culture was obtained, and the cells were removed from the culture supernatant by centrifugation at 12,000×g for 5 minutes. The remaining culture supernatants were stored on ice until required (less than one hour). The bacteria were assayed for the presence or absence of enzymes as described below.
Two peptide substrates, CPI1 and CPI2, were designed to encompass all of the cleavage sites of the RSL sequence, as shown in FIGS. 1A and 1B. The peptide substrates were labeled with the fluorescent probe edans (5-((2-aminoethyl)amino)naphthalene-1-sulfonic acid) and the quencher dye molecule dabcyl ((4-(4-(dimethylamino)phenyl)azo)benzoic acid).
The bacteria were grown in an incubator overnight at 37° C. in 5 mL BHI (Brain Heart Infusion) media. Each of the resulting cultures was split into two samples. […] The reaction was followed on a fluorimetric plate reader using an excitation wavelength of 355 nm and an emission wavelength of 485 nm. […]

[2] = test system: E. coli cells or supernatant; test: Cleavage of CPI2 incubated with E. coli; assay type: biochemical, Escherichia coli
Description: as §1
The bacteria were grown in an incubator overnight at 37° C. in 5 mL BHI (Brain Heart Infusion) media. Each of the resulting cultures was split into two samples. One was used as a culture, and the other was spun down by centrifugation and the supernatant was collected. The assays were run in 20 mM tris buffer (pH 7.2) with 150 mM NaCl added […]. The cleavage reaction was carried out with 7 μL of culture or supernatant and 3 μL of peptide substrate (5 mg/mL in water/DMSO) in 100 μL total volume at 37° C. The reaction was followed on a fluorimetric plate reader using an excitation wavelength of 355 nm and an emission wavelength of 485 nm.

[3] = test system: proteases of Pseudomonas; test: Surface sensor sensitivity: cleavage of CPI2 by bacterial proteases; assay type: biochemical, Pseudomonas aeruginosa
Description: (§2) CPI2 was determined to be a good candidate for a broad-spectrum sensor. Surface sensors were constructed as follows:
(§3) Membrane used: Pall SB6407
(§4) The sensors were air dried and stored overnight at −20° C. Sensors were loaded into sterile 96 well plates for the sensitivity study.
(§5) The bacteria E. faecalis, P. aeruginosa, S. aureus, S. pyogenes, and S. marcescens were grown in an incubator overnight at 37° C. in 5 ml BHI (Brain Heart Infusion) media and diluted to the concentrations given for each experiment. Each strain of bacteria was diluted with PBS (pH 7.4) to obtain an optical density (OD) of approximately 0.52 at 550 nm. This OD was assumed to represent approximately 10^8 cells/ml of bacteria. The 10^8 cells/ml stock of each bacteria was diluted with PBS to obtain a concentration series of: 10^7, 10^6, 10^5 and 10^4 cells/ml. Sensitivity testing consisted of placing 100 μL of each of the concentration series of 10^7, 10^6, 10^5 and 10^4 cells/ml (cells) onto a row of sensors. Controls for each sensitivity testing consisted of sensors exposed to 100 μL PBS.
(§6) Data was taken at 4, 24 and 48 hours for each plate. […] Images were analyzed using NIH ImageJ, a public domain image processing and analysis program developed at the National Institutes of Health (NIH). […]

[4] = test system: five different clinical strains of E. faecalis; test: Inter-strain operability; assay type: biochemical, Enterococcus faecalis; settings: all five clinical strains
Text: A CIP2 fluorescent resonance entergy transfer (FRET) peptide was exposed to five different clinical strains of E. faecalis (obtained from the University of Colorado). […] FIG. 12 illustrates a graph of the relative fluorescence measured after exposure to the various strains.

[5] = test system: proteases of Enterococcus; test: Surface sensor sensitivity: cleavage of CPI2 by bacterial proteases; assay type: biochemical, Enterococcus faecalis
Description: as §2, §3, §4, §5, §6

[6] = test system: proteases of Staphylococcus; test: as above; assay type: biochemical, Staphylococcus aureus
Description: as §2, §3, §4, §5, §6

[7] = test system: proteases of Streptococcus; test: as above; assay type: biochemical, Streptococcus pyogenes
Description: as §2, §3, §4, §5, §6

[8] = Cleavage of CPI2 in uninfected wound fluid; assay type: biochemical; settings: in the presence of uninfected wound fluid
[9] = test system: proteases of Serratia; test: Surface sensor sensitivity: cleavage of CPI2 by bacterial proteases; assay type: biochemical, Serratia marcescens; settings: for sensor signal: end of sensor study (40 hours)
Description: as §2, §3, §4, §5
Data was taken at 4, 24 and 48 hours for each plate. Data consisted of color (fluorescent) images of each plate taken under relatively uniform conditions (lighting, exposure time, etc.) using a Kodak DC290 digital camera. Images were analyzed using NIH ImageJ, a public domain image processing and analysis program developed at the National Institutes of Health (NIH). Analysis consisted of measuring the intensity value within each well (i.e., the sum of the intensity values of all the pixels in the selection divided by the number of pixels). Pixels range in value from 0 to 1. […] All sensor sensitivity data is plotted on an index scale from 0 to 1 versus time and the trends accurately reflect what is seen in the images.

[10] = 10^5 bacteria/ml, end of sensor study (40 hours)

In the case of “Edans-EAAGAMFLEAIPK-Dabcyl (Edans-EAAGAMFLEAIPK-{Dabcyl′}) [CPI1]”, the “protease activity (relative fluorescence)” value [1] is reported as “protease activity was observed for a number of the bacteria”.

In the case of “Edans-EGAMFLEAIPMSIPK-Dabcyl (Edans-EGAMFLEAIPMSIPK-{Dabcyl′}) [CPI2]”, the sensor signal ([2]; 10^5 bacteria/ml) is reported as “not”, the “cleavage of peptide substrate” value ([2]; incubated with E. coli cells or supernatant) is reported as “not cleaved” and the sensor signal [3, 10] is reported as “strong signal”. The “cleavage of peptide substrate” value ([3]; proteases of Pseudomonas) was “efficiently cleaved”, the “protease activity (relative fluorescence)” value [1] was “protease activity was observed for a number of the bacteria” and the “reaction with strains (relative fluorescence)” value [4] was “reacted strongly”. For the same substance, the sensor signal [5, 10] was “strong signal”, the “cleavage of peptide substrate” value ([5]; proteases of Enterococcus) was “efficiently cleaved” and the sensor signal [6, 10] was “strong signal”. The “cleavage of peptide substrate” value ([6]; proteases of Staphylococcus) was “efficiently cleaved”, the sensor signal [7, 10] was “strong signal” and the “cleavage of peptide substrate” value ([7]; proteases of Streptococcus) was “efficiently cleaved”. The “cleavage of peptide substrate” value [8] was “not cleaved”, the sensor signal ([9]; 10^4 bacteria/ml) was “not observed to give a signal that can be significantly measured above the background” and the sensor signal ([9]; 10^5 bacteria/ml) was “strong signal”. The “cleavage of peptide substrate” value ([9]; proteases of Serratia) was “efficiently cleaved”.
